Data: US20130324461A1, “METHODS AND COMPOSITIONS FOR PREVENTING OR TREATING OBESITY” (priority 2010, published 2013)

Experiments:
Format in all cases: in vivo
[1] = Weight gain of mice on high-fat diet treated with various A2AR agonists (Example 5, FIG. 5); settings: male C57BL/6 mice
Procedure: Mice receiving a high-fat diet were treated with the A2AR agonists 2-[4-(2-aminoethylaminocarbonylethyl)phenylethylamino]-5′-N-ethylcarboxamidoadenosine (APEC) bistrifluoroacetic acid or 2 5′-N-ethylcarboxamidoadenosine (NECA). Male C57BL/6 mice (n=5) were provided a high-fat diet beginning at day 0. Also beginning on day 0, the mice were treated with daily subcutaneous injection of A2AR agonist. APEC was administered at 0.25 mg/kg/day, and NECA at 0.02 mg/kg/day.

[2] = Body weight of mice on high-fat diet, treated or untreated with A2AR agonist CGS21680 (Example 3, FIG. 3 left panel)
Procedure: Mice were untreated or treated with the A2AR agonist CGS21680 (Tocris) at different time points. CGS21680 (Tocris) was injected s.c. at a dose of 0.5 mg/kg daily either from week 9 to week 13, from week 13 to week 19, or from week 9 to week 19, as indicated in the FIG. 3 legends. Male mice (8 mice per group) were fed a high-fat diet (where 60% of calories are derived from fat) or low-fat diet (where 10% of calories are derived from fat) and the weight of the mice was measured. Special diets were obtained from Research Diets (New Brunswick, N.J.). One group of mice received no A2AR agonist at all (represented by diamonds in the graphs of FIG. 4); another group of mice was received CGS21680 only from week 9 to 13 (triangles); another group of mice received CGS21680 only from week 13 to 19 (squares); another group of mice received CGS21680 from week 9 to 19 (crosses). […] Some mice in the group that received no A2AR agonist at all (diamonds) almost doubled their weight between weeks 9 and 19, reaching up to 50 g total weight. […] Mice that were not injected from week 9 to 13 (squares) reached almost 40 g of weight by week 13.

[3] = Body weight of mice on low-fat diet, treated or untreated with A2AR agonist CGS21680 (Example 3, FIG. 3 right panel)
Procedure: Mice were untreated or treated with the A2AR agonist CGS21680 (Tocris) at different time points. CGS21680 (Tocris) was injected s.c. at a dose of 0.5 mg/kg daily either from week 9 to week 13, from week 13 to week 19, or from week 9 to week 19, as indicated in the FIG. 3 legends. Male mice (8 mice per group) were fed a high-fat diet (where 60% of calories are derived from fat) or low-fat diet (where 10% of calories are derived from fat) and the weight of the mice was measured. Special diets were obtained from Research Diets (New Brunswick, N.J.). One group of mice received no A2AR agonist at all (represented by diamonds in the graphs of FIG. 4); another group of mice was received CGS21680 only from week 9 to 13 (triangles); another group of mice received CGS21680 only from week 13 to 19 (squares); another group of mice received CGS21680 from week 9 to 19 (crosses). […] Mice in the group that received no A2AR agonist at all (diamonds) gained a small amount of weight reaching up to ˜35 g by week 19. This is much less than the weight reached by mice on the high-fat diet (˜50 g). […] Mice that were not injected with from week 9 to 13 (squares) did gain weight by week 13.

[4] = system: serum leptin; test: Serum leptin levels by ELISA after A2AR agonist injection (Example 4, FIG. 4); settings: 8 week old female C57BL/6 mice, 0.5 mg/kg s.c., after 1 and 2 h, p<0.05
Procedure: To elucidate the mechanism by which A2AR agonists reduce weight gain, serum leptin levels were quantified in mice treated with an A2AR agonist. 8 week old Female C57BL/6 mice received subcutaneous injection of the A2AR agonist CGS21680 (0.5 mg/kg). After 1 and 2 h, serum leptin levels were measured by ELISA. […] The data shown in FIG. 4 represent average±SD (n=4). The statistical significance was calculated by Student's t-test: *, p<0.05.

For `CCNC(=O)[C@H]1O[C@@H](n2cnc3c(N)nc(NCCc4ccc(CCC(=O)NCCN)cc4)nc32)[C@H](O)[C@@H]1O` [APEC, 2-[4-(2-aminoethylaminocarbonylethyl)phenylethylamino]-5′-N-ethylcarboxamidoadenosine], the “weight gain compared to the control group” value ([1]; high-fat diet from day 0, daily s.c. 0.25 mg/kg/day) was “dramatic reduction in weight gain”.
In the case of `CCNC(=O)[C@H]1O[C@@H](n2cnc3c(N)nc(NCCc4ccc(CCC(=O)O)cc4)nc32)[C@H](O)[C@@H]1O` [CGS21680, 3-[4-[2-[[6-amino-9-[(2R,3R,4S,5S)-5-(ethylcarbamoyl)-3,4-dihydroxy-oxolan-2-yl]purin-2-yl]amino]ethyl]phenyl]propanoic acid], the weight gain ([2]; male mice, high-fat diet (60% of calories from fat), 0.5 mg/kg s.c. daily from week 9 to week 19) is reported as “gained little or no weight”, the “weight gain between weeks 9 and 13” value ([2]; male mice, high-fat diet, 0.5 mg/kg s.c. daily only from week 9 to 13) is reported as “gained essentially no weight” and the “further weight gain after start of injections” value ([2]; male mice, high-fat diet, 0.5 mg/kg s.c. daily only from week 13 to 19) is reported as “Essentially no further weight gain”. For the same molecule, the body weight gain ([2]; mice treated continuously (week 9 to 19), regardless of high-fat or low-fat diet) was “minimal”, the weight gain ([3]; male mice, low-fat diet (10% of calories from fat), 0.5 mg/kg s.c. daily from week 9 to week 19) was “gained very little weight” and the “weight gain until week 13” value ([3]; male mice, low-fat diet, 0.5 mg/kg s.c. daily only from week 9 to 13) was “gained essentially no weight”. For the same molecule, the “further weight gain after start of injections” value ([3]; male mice, low-fat diet, 0.5 mg/kg s.c. daily only from week 13 to 19) was “essentially no more weight gain”, the “effect on weight gain (overall statement)” value ([3]; mice on low fat diet, 0.5 mg/kg s.c. daily) was “prevented or limited weight gain” and the serum leptin levels [4] was “significantly increased”.
In the case of `CCNC(=O)[C@H]1O[C@@H](n2cnc3c(N)ncnc32)[C@H](O)[C@@H]1O` [NECA, 5′-N-ethylcarboxamidoadenosine], the “weight gain compared to the control group” value ([1]; high-fat diet from day 0, daily s.c. 0.02 mg/kg/day) is reported as “dramatic reduction in weight gain”.
